Among the data in PubChem BioAssay (NCI) are TGI and GI50 values, retold here.

Test systems include SF-295 CNS; HL-60(TB) leukemia; M14 melanoma; NCI-H460 lung; SNB-19 CNS; CAKI-1 renal; HOP-92 NSCLC; MDA-MB-435; COLO 205 colon.
Common to all, as to test: growth of human tumour cells (NCI), 48 h

Several values for one entry are separate records, joined by “and”; a condition that tells them apart may be missing. Equal entries are not always repeated.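 A five-concentration, 48-hour dose response in 96-well plates underlies each endpoint, interpolated linearly between surrounding concentrations. GI50 = concentration required for 50% inhibition of growth. TGI marks complete inhibition of growth.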 Some results are limits rather than exact numbers.

On to `Cc1c(C#N)c(N)n(C2OC(CO)C(O)C(O)C2O)c(=S)c1C#N` (stereo not given), for which the TGI in the assay with SF-295 CNS, with HL-60(TB) leukemia, with M14 melanoma, with NCI-H460 lung, with SNB-19 CNS and with CAKI-1 renal was above 100 µM each time. Further, in the assay with HOP-92 NSCLC, the TGI was above 100 µM. Also, the GI50 with CAKI-1 renal was 24.4 µM and > 100 µM.
`CCOc1cc(/C=C2\N=C(c3ccccc3)N(c3nc4ccccc4s3)C2=O)ccc1O`: the TGI with SF-295 CNS is above 100 µM; in the assay with HL-60(TB) leukemia, 73.9 µM; in the assay on MDA-MB-435, above 100 µM; in the assay with M14 melanoma, above 100 µM; in the assay on NCI-H460 lung, above 100 µM; in the assay with CAKI-1 renal, above 100 µM. Further, in the assay on HOP-92 NSCLC, the TGI is above 100 µM.
For `O=C(c1cccc2cc(O)ccc12)c1cn(CCN2CCOCC2)c2ccccc12`, the TGI with HL-60(TB) leukemia was 55.5 µM; with M14 melanoma it was 36.9 µM; in the assay with COLO 205 colon it was 78.8 µM; with SNB-19 CNS it was above 100 µM; in the assay on CAKI-1 renal, above 100 µM; in the assay on HOP-92 NSCLC it was 71.6 µM.
Turning to `N#Cc1c2ccc([N+](=O)[O-])cc2c(=O)n2c1sc1ccccc12`, the TGI is 66.1 µM in the assay with HL-60(TB) leukemia; above 100 µM in the assay with MDA-MB-435; above 100 µM in the assay with NCI-H460 lung; 37.7 µM with COLO 205 colon; 36.9 µM in the assay with SNB-19 CNS; above 100 µM with CAKI-1 renal. The compound also showed a TGI in the assay with HOP-92 NSCLC of 41.3 µM.
In the case of `Cc1ccc(N2C3=C(CC4=C2CC(C)(C)CC4=O)C(=O)CC(C)(C)C3)cc1`, the TGI in the assay with SF-295 CNS, with HL-60(TB) leukemia, with MDA-MB-435, in the assay with M14 melanoma, in the assay with NCI-H460 lung and in the assay on COLO 205 colon was above 100 µM in each case. In addition, the TGI with SNB-19 CNS and in the assay on CAKI-1 renal was above 100 µM each time.
As for `NS(=O)(=O)c1ccc(N2C(=O)C(=O)N(c3ccccc3)C2=S)cc1`, the TGI with SF-295 CNS, in the assay on HL-60(TB) leukemia, in the assay on MDA-MB-435, with NCI-H460 lung, in the assay on COLO 205 colon and with SNB-19 CNS was above 100 µM each time. In addition, the TGI is above 100 µM in the assay on CAKI-1 renal and 95.9 µM in the assay on HOP-92 NSCLC.
In the case of `CNC(=O)OCC1=C(COC(=O)NC)C(C)N(c2ccccc2)C1` (stereo not given), the TGI with SF-295 CNS was above 100 µM; with HL-60(TB) leukemia, 47 µM; with MDA-MB-435, 96.4 µM; with M14 melanoma it was 65.8 µM; in the assay on NCI-H460 lung, above 100 µM; in the assay on COLO 205 colon, 48.5 µM. Moreover, the TGI in the assay on SNB-19 CNS and in the assay with HOP-92 NSCLC was above 100 µM in each case.
Take `CCOC(OCC)[C@H](N)[C@@H](O)[C@@H](O)[C@H]1COC(C)(C)O1`: the TGI in the assay with SF-295 CNS, in the assay with MDA-MB-435, in the assay on M14 melanoma, in the assay on COLO 205 colon and with SNB-19 CNS was above 100 µM in each case.
Take `NC(Cc1ccc(O)cn1)C(=O)O` (stereo not given): the TGI in the assay on SF-295 CNS, in the assay on HL-60(TB) leukemia, in the assay with MDA-MB-435, with NCI-H460 lung, in the assay on COLO 205 colon and with SNB-19 CNS was above 100 µM in each case. The TGI in the assay on CAKI-1 renal and in the assay with HOP-92 NSCLC was above 100 µM throughout.
As to `COC(=O)[C@]1(Cc2ccc3ccccc3c2)CCCCCCN1C(=O)c1ccccc1`, the TGI in the assay on SF-295 CNS was above 44.5 µM; in the assay with HL-60(TB) leukemia, above 40.4 µM; with MDA-MB-435, above 53.1 µM; in the assay on M14 melanoma it was above 52.7 µM; with NCI-H460 lung, above 50.2 µM; in the assay on COLO 205 colon, 24.5 µM. In addition, the TGI is above 81.8 µM in the assay on SNB-19 CNS and above 52.9 µM in the assay with HOP-92 NSCLC.
For `O=C1/C(=C\c2cccc(Oc3ccccc3)c2)SC(c2ccccc2)N1c1cccc(Cl)c1` (stereo not given), the TGI with SF-295 CNS, in the assay with MDA-MB-435, with M14 melanoma, in the assay on NCI-H460 lung, in the assay on COLO 205 colon and in the assay with SNB-19 CNS was above 100 µM throughout. Moreover, the TGI with CAKI-1 renal and with HOP-92 NSCLC was above 100 µM in each case.
For `CC(=O)OCCCCn1cnc2c(Cl)nc(Nc3ccccc3)nc21`, the TGI in the assay with SF-295 CNS was above 100 µM; in the assay with HL-60(TB) leukemia, above 100 µM; in the assay on MDA-MB-435, above 100 µM; in the assay with NCI-H460 lung it was above 100 µM; in the assay with COLO 205 colon, above 100 µM; in the assay on CAKI-1 renal, 62 µM.
Turning to `Cc1ccc2c(=O)c(C(=O)NNC(=S)NC3CCCCC3)c[nH]c2n1`, the TGI was above 100 µM with SF-295 CNS; above 100 µM in the assay with HL-60(TB) leukemia; 89 µM in the assay on MDA-MB-435; above 100 µM in the assay with M14 melanoma; above 100 µM with NCI-H460 lung; above 100 µM in the assay on COLO 205 colon. Moreover, the TGI in the assay on SNB-19 CNS and with CAKI-1 renal was above 100 µM each time.
Turning to `Nc1nc(Cc2ccccc2)nc(Cc2ccccc2)c1-c1ccccc1`, the TGI with SF-295 CNS was above 100 µM; in the assay on HL-60(TB) leukemia, 60.5 µM; in the assay with MDA-MB-435, 59.3 µM; in the assay with M14 melanoma, above 100 µM; in the assay on NCI-H460 lung it was above 100 µM; with SNB-19 CNS, above 100 µM. Besides, the TGI in the assay with CAKI-1 renal was 96.1 µM; in the assay on HOP-92 NSCLC, 59.6 µM.
Regarding `COc1ccc(/C=C2/SC(c3c(O)ccc4ccccc34)N(NC(=O)CCCCCCCCC(=O)NN3C(=O)/C(=C\c4ccc(OC)c(OC)c4)SC3c3c(O)ccc4ccccc34)C2=O)cc1OC` (stereo not given), the TGI in the assay with SF-295 CNS is above 100 µM; in the assay with MDA-MB-435, above 100 µM; in the assay with NCI-H460 lung, above 100 µM; in the assay with COLO 205 colon, above 29.9 µM; in the assay with SNB-19 CNS, above 91.7 µM; in the assay on CAKI-1 renal, above 100 µM. The same compound displayed a TGI in the assay with HOP-92 NSCLC of 23.3 µM.
For the compound `C/C(=N\Nc1nc2ccccc2o1)c1cc2ccccc2cn1`, the TGI in the assay on SF-295 CNS is 4.56 µM; in the assay on MDA-MB-435, above 43.4 µM; with NCI-H460 lung, above 100 µM; in the assay with COLO 205 colon, above 32.7 µM; with SNB-19 CNS, 20.5 µM; with CAKI-1 renal, 11.1 µM. The TGI in the assay with HOP-92 NSCLC came to 11.1 µM.
Consider `CCNC1=C(NC(=O)CCl)C(=O)c2ccccc2C1=O`, for which the TGI is 36.9 µM in the assay with SF-295 CNS; 88.9 µM in the assay with HL-60(TB) leukemia; 36.4 µM in the assay on MDA-MB-435; 42.6 µM in the assay on M14 melanoma; 57.4 µM in the assay with NCI-H460 lung; above 10 µM in the assay with COLO 205 colon. Further, the TGI worked out at 54.5 µM in the assay on SNB-19 CNS and 36.2 µM with HOP-92 NSCLC.
